Data from US20260240847A1, “COMPOUNDS WITH ANTI-TUMOR ACTIVITY AGAINST CANCER CELLS BEARING TYROSINE KINASE INHIBITOR RESISTANT EGFR MUTATIONS” (BOARD OF REGENTS, THE UNIVERSITY OF TEXAS SYSTEM, priority 2019, published 2026).

Key:
Assay in all cases: Ba/F3 cell viability, Cell Titer Glo
[1] = target: EGFR L858R G724S (Homo sapiens, UniProt P00533, G724S/L858R); settings: read-out: IC50 Values; Ba/F3 cells expressing EGFR L858R G724S, 72 hours
Experimental: (§1) The transforming capability of the mutations was then evaluated by sustained cell viability following IL-3 deprivation. Activating EGFR mutant Ba/F3 cells were then screened against EGFR TKIs. Cell viability was determined by the Cell Titer Glo assay.
(§2) Ba/F3 cells expressing acquired atypical mutations spanning exons 18-21 were treated with inhibitors for 72 hours. […] Briefly, stable Ba/F3 cell lines were generated by retroviral transduction of Ba/F3 cell line for 12 hours. […] Three days after transduction, 2 μg/ml puromycin (Invitrogen) was added to the RPMI media. Cell lines were then grown in the absence of IL-3 for two weeks and cell viability was assessed every three days using the Cell Titer Glo assay (Progema).
(§3) Briefly, 2000-3000 cells per well were plated in 384-well plates (Greiner Bio-One) in technical triplicate. Cells were treated with seven different concentrations of tyrosine kinase inhibitors or vehicle alone at a final volume of 40 μL per well. After 3 days, 11 μL of Cell Titer Glo was added to each well. Plates were shaken for 15 minutes, and bioluminescence was determined using a FLUOstar OPTIMA multi-mode micro-plate reader (BMG LABTECH). Bioluminescence values were normalized to DMSO treated cells, and normalized values were plotted in GraphPad Prism using non-linear regression fit to normalized data with a variable slope.

[2] = target: EGFR E709K G719S (Homo sapiens, UniProt P00533, E709K/G719S); settings: read-out: IC50 Values; Ba/F3 cells expressing EGFR E709K G719S, 72 hours
Experimental: (§4) Cell viability was determined by the Cell Titer Glo assay.
(§5) Briefly, stable Ba/F3 cell lines were generated by retroviral transduction of Ba/F3 cell line for 12 hours. […] Three days after transduction, 2 μg/ml puromycin (Invitrogen) was added to the RPMI media. Cell lines were then grown in the absence of IL-3 for two weeks and cell viability was assessed every three days using the Cell Titer Glo assay (Progema).
as §3

[3] = target: EGFR Ex19del T790M C797S (Homo sapiens, UniProt P00533, C797S/DEL746-750/T790M); settings: read-out: IC50 Values; Ba/F3 cells expressing EGFR Ex19del T790M C797S, 72 hours
Experimental: as §4, §5, §3

[4] = target: EGFR L858R/C797S (Homo sapiens, UniProt P00533, C797S/L858R); settings: read-out: IC50 Values; Ba/F3 cells expressing EGFR L858R/C797S, 72 hours
Experimental: as §1, §2, §3

[5] = target: EGFR Ex19del L718V (Homo sapiens, UniProt P00533, DEL746-750/L718V); settings: read-out: IC50 Values; Ba/F3 cells expressing EGFR Ex19del L718V, 72 hours
Experimental: as §1, §2, §3

[6] = target: EGFR E709AG719S (Homo sapiens, UniProt P00533, E709A/G719S); settings: read-out: IC50 Values; Ba/F3 cells expressing EGFR E709AG719S, 72 hours
Experimental: as §4, §5, §3

[7] = target: EGFR S811F (Homo sapiens, UniProt P00533, S811F); settings: read-out: IC50 Values; Ba/F3 cells expressing EGFR S811F, 72 hours
Experimental: as §4, §5, §3

[8] = target: EGFR G724S (Homo sapiens, UniProt P00533, G724S); settings: read-out: IC50 Values; Ba/F3 cells expressing EGFR G724S, 72 hours
Experimental: as §4, §5, §3

[9] = target: EGFR L858R G796S (Homo sapiens, UniProt P00533, G796S/L858R); settings: read-out: IC50 Values; Ba/F3 cells expressing EGFR L858R G796S, 72 hours
Experimental: as §1, §2, §3

[10] = target: EGFR L747P (Homo sapiens, UniProt P00533, L747P); settings: read-out: IC50 Values; Ba/F3 cells expressing EGFR L747P, 72 hours
Experimental: as §4, §5, §3

[11] = target: EGFR L858R/L718V (Homo sapiens, UniProt P00533, L718V/L858R); settings: read-out: IC50 Values; Ba/F3 cells expressing EGFR L858R/L718V, 72 hours
Experimental: as §1, §2, §3

[12] = target: EGFR Ex19del G796S (Homo sapiens, UniProt P00533, DEL746-750/G796S); settings: read-out: IC50 Values; Ba/F3 cells expressing EGFR Ex19del G796S, 72 hours
Experimental: as §1, §2, §3

[13] = target: EGFR L858R/T790M/L718Q (Homo sapiens, UniProt P00533, L718Q/L858R/T790M); settings: read-out: IC50 Values; Ba/F3 cells expressing EGFR L858R/T790M/L718Q, 72 hours
Experimental: as §4, §5, §3

[14] = target: EGFR Ex19delT790M (Homo sapiens, UniProt P00533, DEL746-750/T790M); settings: read-out: IC50 Values; Ba/F3 cells expressing EGFR Ex19delT790M, 72 hours
Experimental: as §4, §5, §3

[15] = target: EGFR L858R T790M L718V (Homo sapiens, UniProt P00533, L718V/L858R/T790M); settings: read-out: IC50 Values; Ba/F3 cells expressing EGFR L858R T790M L718V, 72 hours
Experimental: as §4, §5, §3

[16] = target: EGFR L747S (Homo sapiens, UniProt P00533, L747S); settings: read-out: IC50 Values; Ba/F3 cells expressing EGFR L747S, 72 hours
Experimental: as §4, §5, §3

[17] = target: EGFR L858R/V834L (Homo sapiens, UniProt P00533, L858R/V834L); settings: read-out: IC50 Values; Ba/F3 cells expressing EGFR L858R/V834L, 72 hours
Experimental: as §1, §2, §3

[18] = target: EGFR K754E (Homo sapiens, UniProt P00533, K754E); settings: read-out: IC50 Values; Ba/F3 cells expressing EGFR K754E, 72 hours
Experimental: as §4, §5, §3

[19] = target: EGFR S720P (Homo sapiens, UniProt P00533, S720P); settings: read-out: IC50 Values; Ba/F3 cells expressing EGFR S720P, 72 hours
Experimental: as §4, §5, §3

[20] = target: EGFR Ex19delT790M L718V (Homo sapiens, UniProt P00533, DEL746-750/L718V/T790M); settings: read-out: IC50 Values; Ba/F3 cells expressing EGFR Ex19delT790M L718V, 72 hours
Experimental: as §4, §5, §3

## C=CC(=O)N1CC[C@@H](Oc2nc(Nc3ccc(N4CCC(N5CCN(C)CC5)CC4)cc3)c(C(N)=O)nc2CC)C1 [Naquotinib]
[1]
  IC50: 108 nM
[2]
  IC50: 15.2 nM
[3]
  IC50: 1970 nM
[4]
  IC50: 709 nM
[5]
  IC50: 13.9 nM
[6]
  IC50: 48.1 nM
[7]
  IC50: 173 nM
[8]
  IC50: 58.1 nM
[9]
  IC50: 423 nM
[10]
  IC50: 472 nM
[11]
  IC50: 18.8 nM
[12]
  IC50: 53.2 nM
[13]
  IC50: 91.8 nM
[14]
  IC50: 1.41 nM
[15]
  IC50: 4.03 nM
[16]
  IC50: 120 nM
[17]
  IC50: 7.19 nM
[18]
  IC50: 66 nM
[19]
  IC50: 52.9 nM
[20]
  IC50: 7.72 nM
